The values that follow come from the supplement of paper PMC10307832.

Holding throughout (experiment): relative viability (nuclei count vs DMSO), 5 days (fraction); higher = more cells survive
Compound in the assay “Linsitinib + Decitabine”: C[C@]1(O)C[C@@H](c2nc(-c3ccc4ccc(-c5ccccc5)nc4c3)c3c(N)nccn32)C1 [Linsitinib] + Nc1ncn([C@H]2C[C@H](O)[C@@H](CO)O2)c(=O)n1 [Decitabine] (partner 2 µM)
Summed up:
(§1)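 Lung cancer cell lines in 1536-well plates got either a single drug or a fixed anchor-drug dose together with five library-drug doses (not always all listed) in √10 steps, by pin tool, on the day after seeding. Nuclei were counted after 5 days, and relative viability is the treated-to-vehicle ratio of nuclei counts. Values are medians of duplicate plates.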

Compound in the assay “Linsitinib + Luminespib”: C[C@]1(O)C[C@@H](c2nc(-c3ccc4ccc(-c5ccccc5)nc4c3)c3c(N)nccn32)C1 [Linsitinib] + CCNC(=O)c1noc(-c2cc(C(C)C)c(O)cc2O)c1-c1ccc(CN2CCOCC2)cc1 [Luminespib] (partner 0.01 µM)
Summed up:
as §1

Compound in the assay “Ispinesib + Lapatinib”: Cc1ccc(C(=O)N(CCCN)[C@@H](c2nc3cc(Cl)ccc3c(=O)n2Cc2ccccc2)C(C)C)cc1 [Ispinesib] + CS(=O)(=O)CCNCc1ccc(-c2ccc3ncnc(Nc4ccc(OCc5cccc(F)c5)c(Cl)c4)c3c2)o1 [Lapatinib] (partner 2 µM)
Summed up:
as §1

In the case of 201T, the relative viability came to 0.868 with Linsitinib + Decitabine (first compound 0.01 µM); 0.881 in the assay with Linsitinib + Decitabine (first compound 0.03162 µM); 0.904 in the assay with Linsitinib + Decitabine (first compound 0.1 µM); 0.832 with Linsitinib + Decitabine (first compound 0.3162 µM); 0.889 with Linsitinib + Decitabine (first compound 1 µM); 1.05 in the assay with Linsitinib + Luminespib (first compound 0.01 µM). Besides, the relative viability in the assay with Linsitinib + Luminespib (first compound 0.03162 µM) came to 1.13; with Linsitinib + Luminespib (first compound 0.1 µM) it was 1.02; with Linsitinib + Luminespib (first compound 0.3162 µM), 1.18; with Linsitinib + Luminespib (first compound 1 µM) it was 1.1; with Ispinesib + Lapatinib (first compound 0.001 µM) it was 1.06; in the assay with Ispinesib + Lapatinib (first compound 0.003162 µM), 1.07. Further, the relative viability in the assay with Ispinesib + Lapatinib (first compound 0.01 µM) is 1.1; with Ispinesib + Lapatinib (first compound 0.03162 µM), 0.916; in the assay with Ispinesib + Lapatinib (first compound 0.1 µM), 0.431.

For the cell line A549, the relative viability turned out to be 0.246 with Linsitinib + Decitabine (first compound 0.01 µM); 0.234 in the assay with Linsitinib + Decitabine (first compound 0.03162 µM); 0.309 with Linsitinib + Decitabine (first compound 0.1 µM); 0.12 with Linsitinib + Decitabine (first compound 0.3162 µM); 0.241 with Linsitinib + Decitabine (first compound 1 µM); 1.07 in the assay with Ispinesib + Lapatinib (first compound 0.001 µM). For the same cell line, the relative viability with Ispinesib + Lapatinib (first compound 0.003162 µM) worked out at 1.07; with Ispinesib + Lapatinib (first compound 0.01 µM) it was 0.952; in the assay with Ispinesib + Lapatinib (first compound 0.03162 µM), 0.172; with Ispinesib + Lapatinib (first compound 0.1 µM), 0.127.

On to A-427, for which the relative viability with Linsitinib + Decitabine (first compound 0.01 µM) turned out to be 0.597; with Linsitinib + Decitabine (first compound 0.03162 µM), 0.595; with Linsitinib + Decitabine (first compound 0.1 µM), 0.577; in the assay with Linsitinib + Decitabine (first compound 1 µM) it was 0.523; with Linsitinib + Luminespib (first compound 0.01 µM), 0.757; with Linsitinib + Luminespib (first compound 0.03162 µM) it was 0.954. The relative viability with Linsitinib + Luminespib (first compound 0.1 µM) was 1.01; in the assay with Linsitinib + Luminespib (first compound 1 µM), 0.993; with Ispinesib + Lapatinib (first compound 0.001 µM), 1.09; with Ispinesib + Lapatinib (first compound 0.003162 µM), 1.07; in the assay with Ispinesib + Lapatinib (first compound 0.01 µM), 1.13; with Ispinesib + Lapatinib (first compound 0.03162 µM), 0.406. For the same cell line, the relative viability with Ispinesib + Lapatinib (first compound 0.1 µM) was determined as 0.162.

Consider ABC-1, for which the relative viability in the assay with Linsitinib + Decitabine (first compound 0.01 µM) worked out at 1.02; with Linsitinib + Decitabine (first compound 0.03162 µM), 1.17; with Linsitinib + Decitabine (first compound 0.1 µM), 1.22; with Linsitinib + Decitabine (first compound 0.3162 µM) it was 0.995; with Linsitinib + Decitabine (first compound 1 µM), 0.842; with Linsitinib + Luminespib (first compound 0.01 µM), 0.544. The relative viability came to 0.392 with Linsitinib + Luminespib (first compound 0.03162 µM); 0.604 in the assay with Linsitinib + Luminespib (first compound 0.1 µM); 0.519 with Linsitinib + Luminespib (first compound 0.3162 µM); 0.312 with Linsitinib + Luminespib (first compound 1 µM); 1.06 in the assay with Ispinesib + Lapatinib (first compound 0.001 µM); 1.18 with Ispinesib + Lapatinib (first compound 0.003162 µM). Further, the results for the relative viability in the assay with Ispinesib + Lapatinib (first compound 0.01 µM), with Ispinesib + Lapatinib (first compound 0.03162 µM) and in the assay with Ispinesib + Lapatinib (first compound 0.1 µM) were 1.19, 1.03 and 0.766, respectively.

For BEN, the relative viability turned out to be 0.526 with Linsitinib + Decitabine (first compound 0.01 µM); 0.945 with Linsitinib + Decitabine (first compound 0.03162 µM); 0.65 in the assay with Linsitinib + Decitabine (first compound 0.1 µM); 0.442 with Linsitinib + Decitabine (first compound 0.3162 µM); 0.747 with Linsitinib + Decitabine (first compound 1 µM); 0.411 with Linsitinib + Luminespib (first compound 0.01 µM). The relative viability with Linsitinib + Luminespib (first compound 0.03162 µM) is 0.503; with Linsitinib + Luminespib (first compound 0.1 µM), 0.3; with Linsitinib + Luminespib (first compound 1 µM) it was 0.383; with Ispinesib + Lapatinib (first compound 0.001 µM), 0.906; in the assay with Ispinesib + Lapatinib (first compound 0.003162 µM), 0.892; with Ispinesib + Lapatinib (first compound 0.01 µM), 0.7. Moreover, the relative viability with Ispinesib + Lapatinib (first compound 0.03162 µM) was 0.357; in the assay with Ispinesib + Lapatinib (first compound 0.1 µM) it was 0.247.

In the case of CAL-12T, the relative viability amounted to 0.469 in the assay with Linsitinib + Luminespib (first compound 0.01 µM); 0.303 with Linsitinib + Luminespib (first compound 0.03162 µM); 0.515 in the assay with Linsitinib + Luminespib (first compound 0.1 µM); 0.303 with Linsitinib + Luminespib (first compound 0.3162 µM); 0.355 with Linsitinib + Luminespib (first compound 1 µM); 0.625 with Ispinesib + Lapatinib (first compound 0.001 µM). In addition, the relative viability with Ispinesib + Lapatinib (first compound 0.003162 µM) is 0.692; in the assay with Ispinesib + Lapatinib (first compound 0.01 µM), 0.742; in the assay with Ispinesib + Lapatinib (first compound 0.03162 µM), 0.488; with Ispinesib + Lapatinib (first compound 0.1 µM), 0.235.
